In US20250367166A1, “NEXT GENERATION DIPROVOCIMS THAT ACTIVATE THE INNATE AND ADAPTIVE IMMUNE RESPONSE” (The Scripps Research Institute, priority 2022, published 2025):
Like-named read-outs stand apart in the source and are kept apart here.

Assays:
TLR1/TLR2 [1] = target: TLR1/TLR2 (Mus musculus, UniProt Q9EPQ1+Q9QUN7); assay: TNF-α release from thioglycolate-elicited mouse peritoneal macrophages (ELISA); details: for Emax: 4 h, read-out: Efficacy (magnitude) of response versus diprovocim-1 (100%), mouse macrophages
Description: Thioglycolate-elicited macrophages were recovered 4 days after i.p. injection of 2 mL BBL thioglycolate medium, brewer modified (4%; BD Biosciences) by peritoneal lavage with 5 mL phosphate buffered saline (PBS). […] Cells were seeded onto 96-well plates at 1×10^3 cells per well and treated with systematically varied concentrations of the candidate compounds (dissolved in DMSO, and final assay DMSO concentrations (0.5%) were kept constant in all experiments) for 4 h. Ultra-pure LPS (dissolved in H2O, Enzo Life Sciences) was assessed alongside the compounds as a positive control and DMSO treated controls. […] Mouse TNF-α in the supernatants was measured by ELISA kits according to the manufacturer's instructions (eBioscience). EC50's were calculated by Graphpad Prism. All data is mean of duplicates and SD is within ±10% of mean. Mouse cells were from wild type C57BL/6J mice.

TLR1/TLR2 [2] = target: TLR1/TLR2 (Homo sapiens, UniProt O60603+Q15399); assay: TNF-α release from PMA-differentiated human THP-1 cells (ELISA); details: for Emax: THP-1, 4 h, read-out: Efficacy (magnitude) of response versus diprovocim-1 (100%), THP-1;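 on all read-outs here: cells exposed to graded compound concentrations for 4 h, TNF-α quantified in supernatant, LPS as positive and DMSO as negative control, values are duplicate means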
[3] = read-out: EC50 (nM) (mouse): EC50 TNF-α release from mouse macrophages, Table 3
[4] = read-out: EC50 (nM) (THP-1): EC50 TNF-α release from human THP-1 cells, Table 3

Sequence of TLR1/TLR2 (Homo sapiens, UniProt O60603+Q15399) (Q15399 25-786): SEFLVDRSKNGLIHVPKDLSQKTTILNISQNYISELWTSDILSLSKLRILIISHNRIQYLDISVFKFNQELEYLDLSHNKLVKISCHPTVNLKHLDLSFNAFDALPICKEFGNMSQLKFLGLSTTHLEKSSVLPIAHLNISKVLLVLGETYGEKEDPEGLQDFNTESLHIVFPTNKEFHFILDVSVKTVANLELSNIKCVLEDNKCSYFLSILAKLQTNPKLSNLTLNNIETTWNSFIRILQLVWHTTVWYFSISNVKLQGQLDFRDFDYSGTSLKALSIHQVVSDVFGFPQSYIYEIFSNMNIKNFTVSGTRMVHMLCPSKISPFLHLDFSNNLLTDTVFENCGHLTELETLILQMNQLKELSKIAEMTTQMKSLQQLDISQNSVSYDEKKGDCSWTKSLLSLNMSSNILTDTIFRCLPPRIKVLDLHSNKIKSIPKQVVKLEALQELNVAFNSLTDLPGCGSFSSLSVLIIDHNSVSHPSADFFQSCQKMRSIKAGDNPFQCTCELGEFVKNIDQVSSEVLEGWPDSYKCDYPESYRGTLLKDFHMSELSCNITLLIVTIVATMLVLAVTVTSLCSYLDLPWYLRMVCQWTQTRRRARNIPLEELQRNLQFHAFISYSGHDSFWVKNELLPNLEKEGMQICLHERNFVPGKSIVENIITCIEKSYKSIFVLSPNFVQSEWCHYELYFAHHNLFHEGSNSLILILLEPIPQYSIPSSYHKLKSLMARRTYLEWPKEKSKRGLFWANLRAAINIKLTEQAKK
Sequence of TLR1/TLR2 (Homo sapiens, UniProt O60603+Q15399) (O60603 21-784): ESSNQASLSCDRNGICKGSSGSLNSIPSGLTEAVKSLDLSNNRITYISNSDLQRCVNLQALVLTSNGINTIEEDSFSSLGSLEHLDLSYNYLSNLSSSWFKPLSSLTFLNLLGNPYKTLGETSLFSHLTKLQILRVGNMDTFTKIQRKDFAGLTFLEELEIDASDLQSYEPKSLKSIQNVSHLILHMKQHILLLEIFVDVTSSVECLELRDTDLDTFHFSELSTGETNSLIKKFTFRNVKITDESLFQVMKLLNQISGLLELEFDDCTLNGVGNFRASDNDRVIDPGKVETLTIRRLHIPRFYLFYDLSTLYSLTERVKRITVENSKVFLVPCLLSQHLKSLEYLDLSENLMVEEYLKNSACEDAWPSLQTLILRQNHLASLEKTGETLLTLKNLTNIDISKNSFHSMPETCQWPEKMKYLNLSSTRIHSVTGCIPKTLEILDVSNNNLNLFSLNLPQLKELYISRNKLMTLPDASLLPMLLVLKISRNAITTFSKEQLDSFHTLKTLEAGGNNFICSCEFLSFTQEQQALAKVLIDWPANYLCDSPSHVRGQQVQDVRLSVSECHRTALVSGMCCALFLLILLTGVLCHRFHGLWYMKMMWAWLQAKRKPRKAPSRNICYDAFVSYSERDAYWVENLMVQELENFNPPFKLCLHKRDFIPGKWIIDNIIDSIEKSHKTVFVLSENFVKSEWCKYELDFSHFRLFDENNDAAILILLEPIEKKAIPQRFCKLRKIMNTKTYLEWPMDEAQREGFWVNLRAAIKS
Sequence of TLR1/TLR2 (Mus musculus, UniProt Q9EPQ1+Q9QUN7) (Q9EPQ1 26-795): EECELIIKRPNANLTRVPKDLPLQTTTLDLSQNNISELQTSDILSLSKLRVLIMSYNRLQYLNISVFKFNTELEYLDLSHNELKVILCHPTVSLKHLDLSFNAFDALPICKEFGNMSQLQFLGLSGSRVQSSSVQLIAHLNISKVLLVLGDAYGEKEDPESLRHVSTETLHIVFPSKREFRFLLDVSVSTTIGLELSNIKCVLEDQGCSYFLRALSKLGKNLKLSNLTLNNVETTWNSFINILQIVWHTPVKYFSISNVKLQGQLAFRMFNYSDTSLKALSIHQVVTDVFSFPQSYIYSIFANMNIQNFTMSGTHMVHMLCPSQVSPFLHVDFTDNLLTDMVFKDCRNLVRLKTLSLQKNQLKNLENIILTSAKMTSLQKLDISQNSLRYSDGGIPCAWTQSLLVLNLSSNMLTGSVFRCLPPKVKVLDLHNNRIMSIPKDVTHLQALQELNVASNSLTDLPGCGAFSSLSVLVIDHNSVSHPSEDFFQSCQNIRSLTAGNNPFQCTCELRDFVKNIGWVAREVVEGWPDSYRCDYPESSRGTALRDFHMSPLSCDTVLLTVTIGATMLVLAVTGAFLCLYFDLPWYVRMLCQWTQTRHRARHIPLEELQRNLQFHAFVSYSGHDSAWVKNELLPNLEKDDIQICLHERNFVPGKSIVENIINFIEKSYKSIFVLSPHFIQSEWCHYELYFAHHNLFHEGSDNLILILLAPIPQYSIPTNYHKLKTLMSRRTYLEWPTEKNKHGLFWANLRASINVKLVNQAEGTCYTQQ
Sequence of TLR1/TLR2 (Mus musculus, UniProt Q9EPQ1+Q9QUN7) (Q9QUN7 25-784): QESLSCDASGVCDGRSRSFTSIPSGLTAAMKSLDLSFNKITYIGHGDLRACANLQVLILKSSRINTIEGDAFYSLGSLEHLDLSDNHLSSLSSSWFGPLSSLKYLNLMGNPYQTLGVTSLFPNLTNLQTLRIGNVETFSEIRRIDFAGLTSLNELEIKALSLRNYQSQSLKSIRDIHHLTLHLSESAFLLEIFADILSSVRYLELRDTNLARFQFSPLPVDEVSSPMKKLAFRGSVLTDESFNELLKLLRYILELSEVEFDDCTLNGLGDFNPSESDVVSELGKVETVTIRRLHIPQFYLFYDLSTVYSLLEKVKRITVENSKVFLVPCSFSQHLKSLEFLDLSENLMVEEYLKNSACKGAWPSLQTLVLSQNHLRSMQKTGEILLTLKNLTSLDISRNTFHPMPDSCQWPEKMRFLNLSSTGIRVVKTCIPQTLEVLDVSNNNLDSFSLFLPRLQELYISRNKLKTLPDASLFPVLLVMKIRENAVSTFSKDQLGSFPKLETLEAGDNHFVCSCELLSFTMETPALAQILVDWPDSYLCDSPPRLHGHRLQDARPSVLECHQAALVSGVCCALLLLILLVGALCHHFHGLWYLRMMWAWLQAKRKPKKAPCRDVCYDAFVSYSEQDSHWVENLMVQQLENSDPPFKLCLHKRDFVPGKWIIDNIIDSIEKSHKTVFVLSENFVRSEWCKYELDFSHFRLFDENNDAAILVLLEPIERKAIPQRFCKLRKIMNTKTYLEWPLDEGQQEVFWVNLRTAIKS

Row | SMILES | Emax (TLR1/TLR2 [1]) [%] | EC50 (TLR1/TLR2 [1]; [3]) [nM] | Emax (TLR1/TLR2 [2]) [%] | EC50 (TLR1/TLR2 [2]; [4]) [nM] | EC50 (TLR1/TLR2 [1]) [nM] | EC50 (TLR1/TLR2 [2]) [nM]
1 | CC(=O)NCC(=O)OCCCCCCCCCCCCNC(=O)[C@@H]1CN(C(=O)c2ccc(C(=O)N3C[C@@H](C(=O)N[C@H]4C[C@@H]4c4ccccc4)[C@H](C(=O)N[C@H]4C[C@@H]4c4ccccc4)C3)cc2)C[C@H]1C(=O)N[C@H]1C[C@@H]1c1ccccc1 [Compound 40, 12-((3S,4S)-1-(4-((3S,4S)-3,4-Bis(((1S,2R)-2-phenyl-cyclopropyl)carbamoyl)pyrrolidine-1-carbonyl)-benzoyl)-4-(((1S,2R)-2-phenylcyclopropyl)-carbamoyl)pyrrolidine-3-carboxamido)-dodecyl 2-acetamidoacetate] | 180 | 5 | 90 | 0.1 | – | –
2 | O=C(CNC(=O)C(F)(F)F)OCCCCCCCCCCCCNC(=O)[C@@H]1CN(C(=O)c2ccc(C(=O)N3C[C@@H](C(=O)N[C@H]4C[C@@H]4c4ccccc4)[C@H](C(=O)N[C@H]4C[C@@H]4c4ccccc4)C3)cc2)C[C@H]1C(=O)N[C@H]1C[C@@H]1c1ccccc1 [Compound 41, 12-((3S,4S)-1-(4-((3S,4S)-3,4-Bis(((1S,2R)-2-phenyl-cyclopropyl)carbamoyl)pyrrolidine-1-carbonyl)benzoyl)-4-(((1S,2R)-2-phenylcyclopropyl)-carbamoyl)pyrrolidine-3-carboxamido)-dodecyl 2-(2,2,2-trifluoroacetamido)acetate] | 100 | 3.5 | 100 | 0.7 | – | –
3 | CC(C)(C)C(=O)NCC(=O)OCCCCCCCCCCCCNC(=O)[C@@H]1CN(C(=O)c2ccc(C(=O)N3C[C@@H](C(=O)N[C@H]4C[C@@H]4c4ccccc4)[C@H](C(=O)N[C@H]4C[C@@H]4c4ccccc4)C3)cc2)C[C@H]1C(=O)N[C@H]1C[C@@H]1c1ccccc1 [Compound 42, 12-((3S,4S)-1-(4-((3S,4S)-3,4-Bis(((1S,2R)-2-phenylcyclopropyl)carbamoyl)pyrrolidine-1-carbonyl)benzoyl)-4-(((1S,2R)-2-phenylcyclopropyl)carbamoyl)pyrrolidine-3-carboxamido)-dodecyl 2-pivalamidoacetate] | 110 | 6.2 | 110 | 1.8 | – | –
4 | NCC(=O)OCCCCCCCCCCCCNC(=O)[C@@H]1CN(C(=O)c2ccc(C(=O)N3C[C@@H](C(=O)N[C@H]4C[C@@H]4c4ccccc4)[C@H](C(=O)N[C@H]4C[C@@H]4c4ccccc4)C3)cc2)C[C@H]1C(=O)N[C@H]1C[C@@H]1c1ccccc1 [Compound 43, 12-((3S,4S)-1-(4-((3S,4S)-3,4-Bis(((1S,2R)-2-phenylcyclopropyl)carbamoyl)pyrrolidine-1-carbonyl)benzoyl)-4-(((1S,2R)-2-phenylcyclopropyl)carbamoyl)pyrrolidine-3-carboxamido)dodecyl glycinate] | 100 | 0.75 | 100 | 0.07 | 0.7 to 5 | 0.05 to 0.2
5 | CN(C)CC(=O)OCCCCCCCCCCCCNC(=O)[C@@H]1CN(C(=O)c2ccc(C(=O)N3C[C@@H](C(=O)N[C@H]4C[C@@H]4c4ccccc4)[C@H](C(=O)N[C@H]4C[C@@H]4c4ccccc4)C3)cc2)C[C@H]1C(=O)N[C@H]1C[C@@H]1c1ccccc1 [Compound 44, 12-((3S,4S)-1-(4-((3S,4S)-3,4-Bis(((1S,2R)-2-phenylcyclopropyl)carbamoyl)pyrrolidine-1-carbonyl)benzoyl)-4-(((1S,2R)-2-phenylcyclo-propyl)carbamoyl)pyrrolidine-3-carboxamido)-dodecyl 2-(dimethylamino)acetate] | 140 | 4.7 | 100 | 0.05 | 0.7 to 5 | 0.05 to 0.2
